Counter-ions that a name gives are not always drawn.
Legend:
Assay type in all cases: biochemical
[1] = molecular target: MMP-13 (Homo sapiens, UniProt P45452); experiment: MMP-13 inhibition (thiopeptide or fluorescent peptide substrate); conditions: for IC50: read-out: MMP13 IC50; for MMP13 % inhibition: MMP13 IC50, concentration not given
Experimental: The enzyme activity is measured by the rate of the color increase. The thiopeptide substrate is made up fresh as a 20 mM stock in 100% DMSO and the DTNB is dissolved in 100% DMSO as a 100 mM stock and stored in the dark at room temperature. Both the substrate and DTNB are diluted together to 1 mM with substrate buffer (50 mM HEPES pH 7.5, 5 mM CaCl2) before use. The stock of enzyme is diluted with buffer (50 mM HEPES, pH 7.5, 5 mM CaCl2, 0.02% Brij) to the desired final concentration.
(§1) Alternatively, a fluorescent peptide substrate is used. In this test procedure, the peptide substrate contains a fluorescent group and a quenching group. Upon cleavage of the substrate by an MMP, the fluorescence that is generated is quantitated on the fluorescence plate reader. The assay is run in HCBC assay buffer (50 mM HEPES, pH 7.0, 5 mM Ca^+2, 0.02% Brij, 0.5% Cysteine), with human recombinant MMP-1, MMP-9, or MMP-13. The substrate is dissolved in methanol and stored frozen in 1 mM aliquots. For the assay, substrate and enzymes are diluted in HCBC buffer to the desired concentrations. Compounds are added to the 96 well plate containing enzyme and the reaction is started by the addition of substrate.
For either the thiopeptide or fluorescent peptide test procedures, the slope of the line is calculated and represents the reaction rate. […] The mean (x±sem) of the control rate is calculated and compared for statistical significance (p<0.05) with drug-treated rates using Dunnett's multiple comparison test.

[2] = molecular target: TNF-α converting enzyme (TACE) (Homo sapiens, UniProt P78536); experiment: Test procedure for measuring TACE inhibition (fluorescent peptidyl substrate)
Sequence of TNF-α converting enzyme (TACE) (P78536 215-824): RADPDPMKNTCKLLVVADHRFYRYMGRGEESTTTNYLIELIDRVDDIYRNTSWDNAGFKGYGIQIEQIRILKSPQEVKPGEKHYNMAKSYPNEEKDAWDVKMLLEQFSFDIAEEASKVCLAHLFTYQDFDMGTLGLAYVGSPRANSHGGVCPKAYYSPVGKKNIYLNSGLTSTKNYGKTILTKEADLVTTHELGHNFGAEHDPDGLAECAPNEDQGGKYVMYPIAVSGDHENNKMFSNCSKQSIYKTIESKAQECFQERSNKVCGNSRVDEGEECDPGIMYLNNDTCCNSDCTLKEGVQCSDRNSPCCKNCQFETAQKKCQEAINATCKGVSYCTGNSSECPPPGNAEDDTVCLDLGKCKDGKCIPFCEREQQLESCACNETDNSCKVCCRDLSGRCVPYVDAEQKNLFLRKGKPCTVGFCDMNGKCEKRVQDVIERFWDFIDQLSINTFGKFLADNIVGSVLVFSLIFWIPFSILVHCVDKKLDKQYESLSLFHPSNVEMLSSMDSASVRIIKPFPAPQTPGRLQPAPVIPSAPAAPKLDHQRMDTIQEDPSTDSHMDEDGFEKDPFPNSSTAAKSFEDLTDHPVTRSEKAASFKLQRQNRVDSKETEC
Experimental: Using 96-well black microtiter plates, each well receives a solution composed of 10 μL TACE (final concentration 1 μg/mL), 70 μL Tris buffer, pH 7.4 containing 10% glycerol (final concentration 10 mM), and 10 μL of test compound solution in DMSO (final concentration 1 μM, DMSO concentration <1%) and incubated for 10 minutes at room temperature. The reaction is initiated by addition of a fluorescent peptidyl substrate (final concentration 100 μM to each well and then shaking on a shaker for 5 sec.
The reaction is read (excitation 340 nm, emission 420 nm) for 10 min. and the increase in fluorescence over time is plotted as a linear line. The slope of the line is calculated and represents the reaction rate.
The mean (x±sem) of the control rate is calculated and compared for statistical significance (p<0.05) with drug-treated rates using Dunnett's multiple comparison test.

[3] = molecular target: T1, MMP-1 (Homo sapiens, UniProt P03956); experiment: MMP-1 inhibition (thiopeptide or fluorescent peptide substrate); conditions: printed in the MMP1 IC50 column; concentration not given
T1 sequence (P03956 100-469): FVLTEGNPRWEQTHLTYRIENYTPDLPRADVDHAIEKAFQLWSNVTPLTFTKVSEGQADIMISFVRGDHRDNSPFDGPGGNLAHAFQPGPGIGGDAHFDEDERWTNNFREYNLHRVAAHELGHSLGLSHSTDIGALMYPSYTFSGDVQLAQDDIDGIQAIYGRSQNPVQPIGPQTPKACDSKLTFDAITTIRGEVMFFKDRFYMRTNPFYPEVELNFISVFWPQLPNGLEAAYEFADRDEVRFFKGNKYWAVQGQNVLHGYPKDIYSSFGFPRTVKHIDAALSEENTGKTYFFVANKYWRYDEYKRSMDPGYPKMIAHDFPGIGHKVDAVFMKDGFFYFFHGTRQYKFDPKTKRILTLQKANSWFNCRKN
Experimental: (§2) These standard pharmacological test procedures are based on the cleavage of a thiopeptide substrates such as Ac-Pro-Leu-Gly(2-mercapto-4-methyl-pentanoyl)-Leu-Gly-OEt by the matrix metalloproteinases MMP-1, MMP-13 (collagenases) or MMP-9 (gelatinase), which results in the release of a substrate product that reacts colorimetrically with DTNB (5,5′-dithiobis(2-nitro-benzoic acid)). The enzyme activity is measured by the rate of the color increase. The thiopeptide substrate is made up fresh as a 20 mM stock in 100% DMSO and the DTNB is dissolved in 100% DMSO as a 100 mM stock and stored in the dark at room temperature. Both the substrate and DTNB are diluted together to 1 mM with substrate buffer (50 mM HEPES pH 7.5, 5 mM CaCl2) before use. The stock of enzyme is diluted with buffer (50 mM HEPES, pH 7.5, 5 mM CaCl2, 0.02% Brij) to the desired final concentration. The buffer, enzyme, vehicle or inhibitor, and DTNB/substrate are added in this order to a 96 well plate (total reaction volume of 200 μl) and the increase in color is monitored spectrophotometrically for 5 minutes at 405 nm on a plate reader and the increase in color over time is plotted as a linear line.
as §1, with “substrate. The reaction is read (excitation 340 nm, emission 444 nm) for 10 min. and the increase in fluorescence over time is plotted as a linear line.” for “substrate.”
(§3) For either the thiopeptide or fluorescent peptide test procedures, the slope of the line is calculated and represents the reaction rate. The linearity of the reaction rate is confirmed (r^2>0.85). The mean (x±sem) of the control rate is calculated and compared for statistical significance (p<0.05) with drug-treated rates using Dunnett's multiple comparison test. Dose-response relationships can be generated using multiple doses of drug and IC50 values with 95% CI are estimated using linear regression.

[4] = molecular target: MMP-9 (Homo sapiens, UniProt P14780); experiment: MMP-9 inhibition (thiopeptide or fluorescent peptide substrate); conditions: for MMP9 % inhibition: printed in the MMP9 IC50 column, concentration not given
Sequence of MMP-9 (P14780 94-707): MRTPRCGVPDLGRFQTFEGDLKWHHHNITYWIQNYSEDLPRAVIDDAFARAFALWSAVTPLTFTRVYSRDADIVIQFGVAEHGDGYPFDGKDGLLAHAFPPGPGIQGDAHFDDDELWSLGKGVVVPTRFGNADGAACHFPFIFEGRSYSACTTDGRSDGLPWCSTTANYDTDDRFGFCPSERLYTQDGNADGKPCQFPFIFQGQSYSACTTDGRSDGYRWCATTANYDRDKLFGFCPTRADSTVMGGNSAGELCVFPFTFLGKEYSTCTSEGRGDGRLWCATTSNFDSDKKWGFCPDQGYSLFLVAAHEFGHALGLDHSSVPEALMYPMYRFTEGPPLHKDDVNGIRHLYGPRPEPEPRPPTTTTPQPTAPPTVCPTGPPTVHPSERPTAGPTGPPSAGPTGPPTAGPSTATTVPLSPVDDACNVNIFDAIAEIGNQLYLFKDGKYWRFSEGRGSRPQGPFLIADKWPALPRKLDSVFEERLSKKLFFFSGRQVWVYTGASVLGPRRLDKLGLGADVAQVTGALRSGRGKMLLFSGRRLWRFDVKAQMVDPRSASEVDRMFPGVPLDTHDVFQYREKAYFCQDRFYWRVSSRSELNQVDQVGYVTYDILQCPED
Experimental: as §2
as §1, with “substrate. The reaction is read (excitation 340 nm, emission 444 nm) for 10 min. and the increase in fluorescence over time is plotted as a linear line.” for “substrate.”
as §3

| Structure (SMILES) | IC50 [1] [nM] | IC50 [2] [nM] | further results |
| --- | --- | --- | --- |
| CC#CCOc1ccc(S(=O)(=O)CC2(C(=O)NO)CCN(S(=O)(=O)c3cn(C)cn3)CC2)cc1 [Example 60, 4-({[4-(But-2-ynyloxy)phenyl]sulfonyl}methyl)-N-hydroxy-1-1-[(1-methyl-1H-imidazol-4-yl)-sulfonyl]piperidine-4-carboxamide] | 8 | 38.4 | – |
| CC#CCOc1ccc(S(=O)(=O)CC2(C(=O)NO)CCN(Cc3ccc(Cl)s3)CC2)cc1 [Example 47, 4-({[4-(But-2-ynyloxy)phenyl]sulfonyl}methyl)-1-[(5-chlorothien-2-yl)methyl]-N-hydroxypiperidine-4-carboxamide triflouroacetic acid salt] | 275 | 227 | – |
| CC#CCOc1ccc(S(=O)(=O)CC2(C(=O)NO)CCN(C(=O)OCCCCCCCC)CC2)cc1 [Example 57, Octyl-4-({[4-(but-2-ynyloxy)phenyl]sulfonyl}methyl)-4-[(hydroxyamino)-carbonyl]piperidine-1-carboxylate] | 458 | 694 | – |
| CC#CCOc1ccc(S(=O)(=O)CC2(C(=O)NO)CCN(C(=O)c3ccccc3)CC2)cc1 [Example 50, 1-Benzoyl-4-({[4-(but-2-ynyloxy)phenyl]sulfonyl}-methyl)-N-hydroxypiperidine-4-carboxamide] | 352 | – | – |
| CC#CCOc1ccc(SC2(C(=O)NO)CCNCC2)cc1 [Example 15, 4-(4-But-2-ynyloxy-phenylsulfanyl)-piperidine-4-carboxylic acid hydroxyamide] | – | – | MMP13 % inhibition [1]: 24%; MMP1 % inhibition [3]: 24%; MMP9 % inhibition [4]: 25%; inhibition at 1 µM [2]: 38% |
| CC#CCOc1ccc(S(=O)(=O)CC2(C(=O)NO)CCN(C(=O)Nc3ccccc3)CC2)cc1 [Example 53, 4-({[4-(But-2-ynyloxy)phenyl]sulfonyl}methyl)-N-4-hydroxy-N-1-phenyl-piperidine-1,4-dicarboxamide] | 1160 | 20.8 | – |
| CC#CCOc1ccc(SC2(C(=O)NO)CCN(Cc3ccc(Br)cc3)CC2)cc1 [Example 16, 1-(4-Bromo-benzyl)-4-(4-but-2-ynyloxy-phenylsulfanyl)-piperidine-4-carboxylic acid hydroxyamide] | 1470 | – | IC50 ([4]; read-out: MMP9 IC50): 2060 nM; inhibition at 1 µM [2]: 46% |
| CC#CCOc1ccc(S(=O)(=O)CC2(C(=O)NO)CCN(C(=O)CN3CCN(C)CC3)CC2)cc1 [Example 63, 4-({[4-(But-2-ynyloxy)phenyl]sulfonyl}methyl)-N-hydroxy-1-[2-(4-methylpiperazin-1-yl)acetyl]piperidine-4-carboxamide] | 2230 | 66.6 | – |
| CC#CCOc1ccc(SC2(C(=O)NO)CCN(C(=O)OC(C)(C)C)CC2)cc1 [Example 14, 4-(4-But-2-ynyloxy-phenylsulfanyl)-4-hydroxycarbamoyl-piperidine-1-carboxylic acid tert-butyl ester] | – | – | MMP13 % inhibition [1]: 32%; MMP1 % inhibition [3]: 26%; MMP9 % inhibition [4]: 21%; inhibition at 1 µM [2]: 67% |
| CC#CCOc1ccc(S(=O)(=O)CC2(C(=O)NO)CCN(C(=O)CNCc3ccccc3)CC2)cc1 [Example 61, 1-[2-(Benzylamino)acetyl]-4-({[4-(but-2-ynyloxy)phenyl]sulfonyl}methyl)-N-hydroxypiperidine-4-carboxamide] | 575 | 56.4 | – |

The next lines start with results.

| IC50 [1] [nM] | IC50 [2] [nM] | Structure (SMILES) | further results |
| --- | --- | --- | --- |
| 3710 | 41.8 | CC#CCOc1ccc(S(=O)(=O)CC2(C(=O)NO)CCN(C(=O)NCC)CC2)cc1 [Example 52, 4-({[4-(But-2-ynyloxy)phenyl]sulfonyl}methyl)-N-1-ethyl-N-4-hydroxypiperidine-1,4-dicarboxamide] | – |
| 3.2 | – | CC#CCOc1ccc(S(=O)(=O)CC2(C(=O)NO)CCN(C(=O)N(C)c3ccccc3)CC2)cc1 [Example 56, 4-({[4-(But-2-ynyloxy)phenyl]sulfonyl}methyl)-N-4-hydroxy-N-1-methyl-N-1-phenylpiperidine-1,4-dicarboxamide] | – |
| 600 | 70.7 | CC#CCOc1ccc(S(=O)(=O)CC2(C(=O)NO)CCN(C(=O)N3CCOCC3)CC2)cc1 [Example 55, 4-({[4-(But-2-ynyloxy)phenyl]sulfonyl}methyl)-N-hydroxy-1-(morpholin-4-ylcarbonyl)piperdine-4-carboxamide] | – |
| 11.2 | 53.3 | CC#CCOc1ccc(S(=O)(=O)CC2(C(=O)NO)CCN(S(=O)(=O)c3ccccc3)CC2)cc1 [Example 59, 4-({[4-(But-2-ynyloxy)phenyl]sulfonyl}methyl)-N-hydroxyl-(phenylsulfonyl)piperidine-4-carboxamide] | – |
| 1730 | 32.6 | CC#CCOc1ccc(S(=O)(=O)CC2(C(=O)NO)CCN(C(=O)c3cccnc3)CC2)cc1 [Example 49, 4-({[4-(But-2-ynyloxy)phenyl]sulfonyl}methyl)-N-hydroxy-1-(pyridin-3-ylcarbonyl)piperidine-4-carboxamide triflouroacetic acid salt] | – |
| 179 | 21.1 | CC#CCOc1ccc(S(=O)(=O)CC2(C(=O)NO)CCN(C(=O)Oc3ccc(OC)cc3)CC2)cc1 [Example 58, 4-Methoxyphenyl-4-({[4-(but-2-ynyloxy)phenyl]sulfonyl}methyl)-4-[(hydroxyamino)carbonyl]piperidine-1-carboxylate] | – |
| – | 105 | CC#CCOc1ccc(S(=O)(=O)CC2(C(=O)NO)CCN(CC)CC2)cc1 [Example 46, 4-({[4-(But-2-ynyloxy)phenyl]sulfonyl}methyl)-1-ethyl-N-hydroxypiperidine-4-carboxamide triflouroacetic acid salt] | MMP13 % inhibition [1]: 55.6% |
| 104 | 32.2 | CC#CCOc1ccc(S(=O)(=O)CC2(C(=O)NO)CCN(C(=O)N(CC)CC)CC2)cc1 [Example 54, 4-({[4-(But-2-ynyloxy)phenyl]sulfonyl}methyl)-N-1-,N-1-diethyl-N-4-hydroxypiperidine-1,4-dicarboxamide] | – |

Reference: US6753337B2, “Alkynyl containing hydroxamic acid compounds as matrix metalloproteinase/tace inhibitors” (Wyeth Holdings Corporation, priority 1999, dated 2004)
